Results reported in ChEMBL document CHEMBL1909046, “DrugMatrix in vitro pharmacology data”.

Legend:
[1] = target: T1, Calcitonin receptor (Homo sapiens, UniProt P30988); type: cell membranes, Membrane; conditions: t47d; further: in other assays of this panel Not Active means under 50% inhibition at 10 µM
T1 sequence (P30988 whole entry): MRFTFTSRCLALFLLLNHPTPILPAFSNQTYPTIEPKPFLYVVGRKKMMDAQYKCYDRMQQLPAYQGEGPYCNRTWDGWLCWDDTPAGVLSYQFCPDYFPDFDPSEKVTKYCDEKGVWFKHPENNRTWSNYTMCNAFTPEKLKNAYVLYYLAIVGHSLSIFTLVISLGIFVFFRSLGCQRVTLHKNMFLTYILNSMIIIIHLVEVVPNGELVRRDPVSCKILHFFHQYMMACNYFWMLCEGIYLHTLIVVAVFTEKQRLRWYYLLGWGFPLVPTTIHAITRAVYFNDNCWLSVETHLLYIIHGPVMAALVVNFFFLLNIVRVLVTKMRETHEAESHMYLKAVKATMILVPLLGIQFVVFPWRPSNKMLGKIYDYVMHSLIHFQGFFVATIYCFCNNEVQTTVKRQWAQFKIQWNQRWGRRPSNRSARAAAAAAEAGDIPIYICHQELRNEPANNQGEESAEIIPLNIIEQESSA

[2] = target: T2, D(4) dopamine receptor (Homo sapiens, UniProt P21917); assay: DRUGMATRIX: Dopamine D4.2 radioligand binding (ligand: [3H] Spiperone); type: cell membranes, CHO-K1, Membrane; conditions: cho-k1; Not Active = under 50% inhibition at 10 µM
T2 sequence (P21917 whole entry): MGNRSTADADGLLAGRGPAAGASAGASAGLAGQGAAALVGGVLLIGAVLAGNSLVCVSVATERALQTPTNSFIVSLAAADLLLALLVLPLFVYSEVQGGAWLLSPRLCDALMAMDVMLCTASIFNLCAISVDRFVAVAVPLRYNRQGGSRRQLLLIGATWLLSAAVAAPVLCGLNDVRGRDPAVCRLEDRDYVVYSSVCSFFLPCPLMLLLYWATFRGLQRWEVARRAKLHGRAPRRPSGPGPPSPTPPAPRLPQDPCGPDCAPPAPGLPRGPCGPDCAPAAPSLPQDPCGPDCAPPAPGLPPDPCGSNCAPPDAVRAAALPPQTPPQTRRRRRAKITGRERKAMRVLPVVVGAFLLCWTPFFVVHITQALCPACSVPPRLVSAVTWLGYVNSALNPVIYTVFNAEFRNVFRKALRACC

[3] = DRUGMATRIX: GABAA, Chloride Channel, TBOB radioligand binding (ligand: [3H] TBOB); type: cell membranes, Rattus norvegicus, Wistar, Cerebral cortex, Membrane; conditions: Not Active = under 50% inhibition at 10 µM
[4] = target: T3, Muscarinic acetylcholine receptor M5 (Homo sapiens, UniProt P08912); type: cell membranes, CHO-K1, Membrane; further: in other assays of this panel Not Active means under 50% inhibition at 10 µM
T3 sequence (P08912 whole entry): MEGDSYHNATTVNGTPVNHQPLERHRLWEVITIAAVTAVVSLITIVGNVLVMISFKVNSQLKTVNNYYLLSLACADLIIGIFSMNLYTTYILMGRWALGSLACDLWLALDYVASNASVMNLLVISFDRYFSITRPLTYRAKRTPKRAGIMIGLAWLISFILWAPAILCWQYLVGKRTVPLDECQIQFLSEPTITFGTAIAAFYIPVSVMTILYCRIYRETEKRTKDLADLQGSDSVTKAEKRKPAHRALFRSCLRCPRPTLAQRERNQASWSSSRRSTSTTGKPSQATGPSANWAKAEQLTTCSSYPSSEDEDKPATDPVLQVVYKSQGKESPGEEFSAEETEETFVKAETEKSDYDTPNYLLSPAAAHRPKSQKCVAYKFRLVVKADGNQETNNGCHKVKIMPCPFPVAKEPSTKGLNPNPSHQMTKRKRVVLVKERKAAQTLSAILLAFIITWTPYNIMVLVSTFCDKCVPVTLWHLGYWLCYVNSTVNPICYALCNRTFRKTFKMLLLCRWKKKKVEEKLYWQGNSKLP

[5] = DRUGMATRIX: Platelet-Derived Growth Factor (PDGF) radioligand binding (ligand: [125I] PDGF); type: cell-based; conditions: nih3t3; Not Active = under 50% inhibition at 10 µM
[6] = target: T4, Caspase-1 (Homo sapiens, UniProt P29466); set-up: species or system Escherichia coli;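 further: Caspase-1 enzyme inhibition assay with a peptide substrate; in other assays of this panel Not Active means under 50% inhibition at 10 µM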
T4 sequence (P29466 whole entry): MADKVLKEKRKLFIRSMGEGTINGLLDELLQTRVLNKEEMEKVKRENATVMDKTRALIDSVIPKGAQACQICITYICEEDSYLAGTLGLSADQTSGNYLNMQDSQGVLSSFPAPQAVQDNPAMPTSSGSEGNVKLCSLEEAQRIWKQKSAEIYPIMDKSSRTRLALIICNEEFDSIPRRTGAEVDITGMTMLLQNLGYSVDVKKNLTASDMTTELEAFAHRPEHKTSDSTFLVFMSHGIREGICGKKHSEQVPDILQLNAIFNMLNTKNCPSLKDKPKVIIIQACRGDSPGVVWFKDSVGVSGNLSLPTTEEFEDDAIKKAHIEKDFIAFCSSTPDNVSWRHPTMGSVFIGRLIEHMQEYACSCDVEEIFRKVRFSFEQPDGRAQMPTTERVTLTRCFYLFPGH

[7] = target: Protein phosphatase 3 catalytic subunit alpha (Homo sapiens, UniProt Q08209); set-up: species or system Escherichia coli;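 further: inhibition of calcineurin (PP2B) enzyme activity, measured with DiFMUP as the substrate; in other assays of this panel Not Active means under 50% inhibition at 10 µM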

Compound | IC50 [1] | IC50 [2] | IC50 [3] | Ki [3] | IC50 ([4]; cho-k1) | IC50 [5] | Ki [5] | IC50 [6] | IC50 [7] | IC50 ([4]; read-out: IC50) [nM] | Ki ([4]; read-out: Ki) [nM]
C[C@H]1C[C@H]2[C@@H]3CCC4=CC(=O)C=C[C@]4(C)[C@@]3(F)[C@@H](O)C[C@]2(C)[C@@]1(O)C(=O)CO [BETAMETHASONE] | Not Active | Not Active | Not Active | Not Active | Not Active | Not Active | Not Active | Not Active | Not Active | – | –
CCCCCCNC(=O)n1cc(F)c(=O)[nH]c1=O [CARMOFUR] | Not Active | Not Active | Not Active | Not Active | Not Active | Not Active | Not Active | Not Active | Not Active | – | –
CC(C)(c1ccc(O)cc1)c1ccc(O)cc1 [BISPHENOL A] | Not Active | Not Active | Not Active | Not Active | Not Active | Not Active | Not Active | Not Active | Not Active | – | –
C#C[C@]1(O)CC[C@H]2[C@@H]3CCC4=CC(=O)CC[C@@H]4[C@H]3CC[C@@]21C [NORETHINDRONE] | Not Active | Not Active | Not Active | Not Active | Not Active | Not Active | Not Active | Not Active | Not Active | – | –
Nc1ccc(Cc2ccc(N)cc2)cc1 | Not Active | Not Active | Not Active | Not Active | Not Active | Not Active | Not Active | Not Active | Not Active | – | –
CCN(CCO)CCCC(C)Nc1ccnc2cc(Cl)ccc12 (stereo not drawn) [HYDROXYCHLOROQUINE] | Not Active | Not Active | Not Active | Not Active | Not Active | Not Active | Not Active | Not Active | Not Active | – | –
COC(=O)Nc1nc2ccc(Sc3ccccc3)cc2[nH]1 [FENBENDAZOLE] | Not Active | Not Active | Not Active | Not Active | Not Active | Not Active | Not Active | Not Active | Not Active | – | –
Cc1ccnc2c1NC(=O)c1cccnc1N2C1CC1 [NEVIRAPINE] | Not Active | Not Active | Not Active | Not Active | Not Active | Not Active | Not Active | Not Active | Not Active | – | –
CC[C@H]1OC(=O)[C@H](C)[C@@H](O[C@H]2C[C@@](C)(OC)[C@@H](O)[C@H](C)O2)[C@H](C)[C@@H](O[C@@H]2O[C@H](C)C[C@H](N(C)C)[C@H]2O)[C@](C)(O)C[C@@H](C)C(=O)[C@H](C)[C@@H](O)[C@]1(C)O [ERYTHROMYCIN] | Not Active | Not Active | Not Active | Not Active | Not Active | Not Active | Not Active | Not Active | Not Active | – | –
C=CCO [ALLYL ALCOHOL] | Not Active | Not Active | Not Active | Not Active | Not Active | Not Active | Not Active | Not Active | Not Active | – | –
CC(CN1c2ccccc2Sc2ccccc21)N(C)C (stereo not drawn) [PROMETHAZINE] | Not Active | Not Active | Not Active | Not Active | – | Not Active | Not Active | Not Active | Not Active | 4.6 | 3.31
NCC(CC(=O)O)c1ccc(Cl)cc1 (stereo not drawn) [BACLOFEN] | Not Active | Not Active | Not Active | Not Active | Not Active | Not Active | Not Active | Not Active | Not Active | – | –
CCN1CCN(c2cc3c(cc2F)c(=O)c(C(=O)O)cn3C2CC2)CC1 [ENROFLOXACIN] | Not Active | Not Active | Not Active | Not Active | Not Active | Not Active | Not Active | Not Active | Not Active | – | –
